Test results as given in patent US12297206B2, “Method for synthesizing furoimidazopyridine compound, polymorphic substance and polymorphic substance of salt” (HANGZHOU HIGHLIGHTLL PHARMACEUTICAL CO., LTD, priority 2019, dated 2025).
Converted amounts (≈) assume the structure as drawn. Where two headings read alike, the source gives them in different places.

How the values were obtained:
[1] = Stability test 1: short-term solid state stability (high temperature and accelerated conditions); assay type: physicochemical
Method: For the open samples, the bottle cap was removed and the bottle neck was coverred with an aluminium-foil paper stabbed with pinholes to avoid cross contamination; for the closed samples, the bottled were coverred and sealed tightly. Samples were taken at weeks 1 and 2, respectively, the samples were diluted with a diluent (methanol/water (1/1) (v/v)), the liquid phase was injected according to the chromatographic conditions in Table 22 and the sample purities were determined.
The sample purities were calculated with an area normalization method.

[2] = Dynamic vapour sorption (DVS) moisture absorption; assay type: physicochemical
[3] = Stability test 1: short-term solid state stability (high temperature and accelerated conditions); assay type: physicochemical; conditions: for Stability study: crystal form: 2 weeks (XRPD, DSC); for Appearance in solid state stability test: within 2 weeks, 60° C. and 40° C./75% RH
physchem = conditions: 37 °C, thermodynamic from solid
Method: The samples were observed 5 minutes later, a quantity of sample or medium was supplemented to obtain mild suspension, and sampling was conduct at 30 minutes, 2 hour, 4 hours and 24 hours, respectively. The samples were centrifuged for 10 minutes at 12000 rpm to obtain the supernatant, the supernatant was diluted appropriately and was subjected to high performance liquid chromatography.
The sample concentration was calculated with an external standard method.

[4] = dissolved at about 50° C., transferred to −20° C.
Method: The temperature was maintained for 15 minutes, the solution was filterred with a 0.45 μm membrane when hot and was transferred to new sample bottles, the bottled were immediately transferred to a −20° C. refrigerator overnight, the solvent systems wherein solid was precipitated were centrifuged and the solid was collected, the solvent was volatilized at room temperature (20-25° C.) to dryness; the solvent systems wherein no solid was precipitated were placed to a −20° C. refrigerator until a large amount of solids precipitated.

[5] = evaporated at room temperature
[6] = room temperature and 50° C., days 3, 7 and 14
Method: The sample bottles (wrapped with a tin foil paper to protect from light) in a room temperature system were placed on Labquaker rotator for rotating 360°; the samples in a high temperature system were placed in a 50° C. thermostatic shaking incubator and were slurried, part of the suspension samples were taken on days 3, 7 and 14, respectively and were centrifuged, solid residue was collected, the solvents were volatilized at room temperature (20-25° C.) to dryness, the solid was collected.

[7] = good solvents tetrahydrofuran, ethanol, isopropanol, methanol, acetone
From the text: If no solid was precipitated, the system was stirred with the bottle opened until solid was precipitated.

[8] = dissolved at about 50° C., slowly cooled at 6° C./h
Method: The temperature was maintained for 15 minutes, the solution was filterred with a 0.45 μm membrane when hot and transferred to new sample bottles, slowly cooled to room temperature at 6° C./h overnight, the sample bottles were placed in a refrigerator (2-8° C.), the solvent systems wherein solid precipitated were centrifuged and the solid was collected, the solvent was volatilized at room temperature (20-25° C.) to dryness; the solvent systems wherein no solid precipitated were placed in a −20° C. refrigerator until a large amount of solids precipitated.

[9] = system: thrombopoietin-induced STAT3 phosphorylation; conditions: as reported for WO2018067422A1; cited from earlier work
TYK2 = molecular target: T1, TYK2 (Homo sapiens, UniProt P29597); experiment: TYK2 biochemical test (33P-ATP filter binding kinase assay, Reaction Biology Corp); conditions: kinase reaction 2 hours at room temperature
T1 construct: purchased Reaction Biology Corp, Malvern, PA (contract assay service)
T1 sequence (P29597 whole entry): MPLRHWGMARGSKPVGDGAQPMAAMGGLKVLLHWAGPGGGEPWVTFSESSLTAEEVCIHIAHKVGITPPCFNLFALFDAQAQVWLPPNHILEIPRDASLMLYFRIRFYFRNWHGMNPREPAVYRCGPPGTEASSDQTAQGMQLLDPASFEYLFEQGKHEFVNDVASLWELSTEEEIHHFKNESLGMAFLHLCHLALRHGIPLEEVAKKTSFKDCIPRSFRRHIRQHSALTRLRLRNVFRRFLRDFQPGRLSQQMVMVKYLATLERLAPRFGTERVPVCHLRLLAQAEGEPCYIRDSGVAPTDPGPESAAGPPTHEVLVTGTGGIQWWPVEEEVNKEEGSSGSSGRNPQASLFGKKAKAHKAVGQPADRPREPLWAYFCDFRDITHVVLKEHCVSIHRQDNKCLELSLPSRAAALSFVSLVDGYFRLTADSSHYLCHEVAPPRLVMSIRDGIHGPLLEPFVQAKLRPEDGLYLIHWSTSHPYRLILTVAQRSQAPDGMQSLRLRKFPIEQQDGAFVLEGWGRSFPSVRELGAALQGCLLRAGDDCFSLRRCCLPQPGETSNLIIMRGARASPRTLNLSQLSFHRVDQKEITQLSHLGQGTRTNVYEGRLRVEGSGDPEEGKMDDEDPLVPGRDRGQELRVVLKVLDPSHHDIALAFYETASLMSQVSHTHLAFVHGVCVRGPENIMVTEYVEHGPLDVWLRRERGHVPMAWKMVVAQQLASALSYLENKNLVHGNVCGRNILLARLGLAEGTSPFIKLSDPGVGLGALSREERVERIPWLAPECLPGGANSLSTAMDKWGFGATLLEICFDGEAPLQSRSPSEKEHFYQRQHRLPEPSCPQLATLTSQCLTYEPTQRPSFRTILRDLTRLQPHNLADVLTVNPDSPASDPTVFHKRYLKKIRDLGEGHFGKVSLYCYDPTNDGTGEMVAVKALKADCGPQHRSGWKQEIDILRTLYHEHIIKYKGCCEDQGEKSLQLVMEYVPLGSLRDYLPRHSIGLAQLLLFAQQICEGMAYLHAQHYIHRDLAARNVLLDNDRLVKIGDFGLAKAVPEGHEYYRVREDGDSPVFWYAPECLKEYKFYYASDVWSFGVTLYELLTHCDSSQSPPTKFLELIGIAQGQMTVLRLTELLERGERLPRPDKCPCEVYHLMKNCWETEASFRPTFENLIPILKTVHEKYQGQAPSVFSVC
Method: A suitable amount of a compound of formula I was weighed for TYK2 biochemical test.
The test was conducted by Reaction Biology Corp, Malvern, PA (Anastassiadis et al. Nat Biotechnol. 2011; 29(11):1039-45). The steps are briefly described as follows.
Basic reaction buffer: 20 mM Hepes (pH 7.5), 10 mM MgCl2, 1 mM EGTA, 0.02% Brij35, 0.02 mg/ml BSA, 0.1 mM Na3VO4, 2 mM DTT and 1% DMSO. The required cofactors were added to each kinase reaction.
1. Preparing the designated substrate in the newly prepared basic reaction buffer;
2. Transferring the required cofactor to the above matrix solution;
3. Transferring the designated kinase to the substrate solution and mixing well slightly;
4. Transferring a compound of formula I in DMSO to a kinase reaction mixture with Acoustic technique (Echo550; nanoliter range), culturing for 20 minutes at room temperature;
5. Introducing ^33P-ATP (specific activity: 10 μCi/μl) to the reaction mixture to trigger a reaction;
6. Culturing at room temperature and conducting a kinase reaction for 2 hours;
7. Plotting the reaction on P81 ion exchange paper;
8. Testing the kinase activity with a filter binding assay.

[10] = system: IL-6-induced STAT3 phosphorylation; conditions: as reported for WO2018067422A1; cited from earlier work
JAK1 = JAK1 (Homo sapiens, UniProt P23458); conditions: as reported for WO2018067422A1; cited from earlier work
Sequence of JAK1 (P23458 whole entry, species assumed): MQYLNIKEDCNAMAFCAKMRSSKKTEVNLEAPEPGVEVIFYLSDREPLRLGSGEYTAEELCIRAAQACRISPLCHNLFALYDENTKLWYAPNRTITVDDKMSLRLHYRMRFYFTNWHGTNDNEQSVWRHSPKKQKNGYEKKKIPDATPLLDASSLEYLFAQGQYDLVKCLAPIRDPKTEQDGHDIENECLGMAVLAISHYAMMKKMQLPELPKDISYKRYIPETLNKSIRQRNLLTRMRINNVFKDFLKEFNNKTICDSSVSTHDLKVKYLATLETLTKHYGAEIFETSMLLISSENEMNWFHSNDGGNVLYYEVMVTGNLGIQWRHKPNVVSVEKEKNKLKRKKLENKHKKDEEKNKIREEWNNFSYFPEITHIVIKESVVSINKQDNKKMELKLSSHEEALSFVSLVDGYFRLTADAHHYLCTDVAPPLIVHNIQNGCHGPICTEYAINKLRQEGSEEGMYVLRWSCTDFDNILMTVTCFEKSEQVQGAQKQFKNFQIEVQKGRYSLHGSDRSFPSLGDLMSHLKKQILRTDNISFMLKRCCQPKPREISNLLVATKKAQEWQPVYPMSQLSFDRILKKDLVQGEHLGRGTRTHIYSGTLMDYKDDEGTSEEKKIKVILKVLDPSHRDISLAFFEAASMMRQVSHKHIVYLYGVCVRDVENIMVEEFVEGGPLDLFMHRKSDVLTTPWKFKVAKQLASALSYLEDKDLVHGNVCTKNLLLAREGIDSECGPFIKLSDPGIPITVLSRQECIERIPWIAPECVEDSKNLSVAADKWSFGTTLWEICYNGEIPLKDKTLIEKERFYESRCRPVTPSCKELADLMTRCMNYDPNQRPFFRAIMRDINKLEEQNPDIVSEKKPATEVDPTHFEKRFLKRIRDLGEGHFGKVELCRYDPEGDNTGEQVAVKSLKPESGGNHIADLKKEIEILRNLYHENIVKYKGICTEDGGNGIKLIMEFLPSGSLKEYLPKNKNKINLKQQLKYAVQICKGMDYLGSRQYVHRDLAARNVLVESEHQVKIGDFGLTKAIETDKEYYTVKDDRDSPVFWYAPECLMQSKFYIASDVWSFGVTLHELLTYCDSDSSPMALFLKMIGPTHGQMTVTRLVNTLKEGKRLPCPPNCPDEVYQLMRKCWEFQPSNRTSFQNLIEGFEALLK

[11] = fasted-state simulated intestinal fluid (FaSSIF), fassif
[12] = fed-state simulated intestinal fluid (FeSSIF), fessif
[13] = simulated gastric fluid (SGF), simulated gastric fluid

## Cc1nc2cnc3ccoc3c2n1[C@H]1CC[C@H](CC#N)OC1
[1]; 0 day
  Stability study (purity): 99.80 Area %
[1]; 40° C./75% RH, open, 1 week
  Stability study (purity): 99.82 Area %
[1]; 40° C./75% RH, open, 2 weeks
  Stability study (purity): 99.82 Area %
[1]; 60° C., sealed, 1 week
  Stability study (purity): 99.81 Area %
[1]; 60° C., sealed, 2 weeks
  Stability study (purity): 99.83 Area %
[2]
  Crystal form after moisture absorption (XRPD before and after the DVS test): the crystal form changes
[2]; from 0% RH to 95% RH, 25° C.
  Weight gain by moisture absorption (DVS): 13.86%
[3]; 40° C./75% RH, open
  Stability study: crystal form: Change
[3]; 60° C., sealed
  Stability study: crystal form: Change
[3]
  Appearance in solid state stability test: didn't change
physchem; [11]
  solubility at 30 min: 2590 µg/mL (≈ 8.74 mM)
  solubility at 2 h: 1860 µg/mL (≈ 6.28 mM)
  solubility at 4 h: 1810 µg/mL (≈ 6.11 mM)
  solubility at 24 h: 1560 µg/mL (≈ 5.26 mM)
physchem; [12]
  solubility at 30 min: 2910 µg/mL (≈ 9.82 mM)
  solubility at 2 h: 2200 µg/mL (≈ 7.42 mM)
  solubility at 4 h: 2610 µg/mL (≈ 8.81 mM)
  solubility at 24 h: 3290 µg/mL (≈ 11.1 mM)
physchem; [13]
  solubility at 30 min: 16400 µg/mL (≈ 55.3 mM)
  solubility at 2 h: 17000 µg/mL (≈ 57.2 mM)
  solubility at 4 h: 15200 µg/mL (≈ 51.2 mM)
  solubility at 24 h: 16400 µg/mL (≈ 55.4 mM)
physchem; water
  solubility at 30 min: 1350 µg/mL (≈ 4.56 mM)
  solubility at 2 h: 1730 µg/mL (≈ 5.84 mM)
  solubility at 4 h: 1490 µg/mL (≈ 5.03 mM)
  solubility at 24 h: 1430 µg/mL (≈ 4.83 mM)

## Cc1nc2cnc3ccoc3c2n1C1CCC(CC#N)OC1.O=P(O)(O)O (stereo not shown)
[1]; 0 day
  Stability study (purity): 99.34 Area %
[1]; 40° C./75% RH, open, 1 week
  Stability study (purity): 99.33 Area %
[1]; 40° C./75% RH, open, 2 weeks
  Stability study (purity): 99.35 Area %
[1]; 60° C., sealed, 1 week
  Stability study (purity): 99.32 Area %
[1]; 60° C., sealed, 2 weeks
  Stability study (purity): 99.16 Area %
[2]
  Crystal form after moisture absorption (XRPD before and after the DVS test): doesn't change
[2]; at 70% RH
  Weight gain by moisture absorption (DVS): 1.95%
[2]; at a humidity of 85% RH
  Weight gain by moisture absorption (DVS): 0.72%
[2]; from 0% RH to 95% RH, 25° C.
  Weight gain by moisture absorption (DVS): 6.5%
[3]; 40° C./75% RH, open
  Stability study: crystal form: Unchange
[3]; 60° C., sealed
  Stability study: crystal form: Unchange
[3]
  Appearance in solid state stability test: didn't change

## Cc1nc2cnc3ccoc3c2n1C1CCC(CC#N)OC1.Cc1nc2cnc3ccoc3c2n1C1CCC(CC#N)OC1.O=C(O)C(O)C(O)C(=O)O (stereo not shown)
[4]; Ethanol
  Crystal form of precipitated solid: Crystal form O
[4]; Isopropanol
  Crystal form of precipitated solid: Crystal form O
[4]; Methanol
  Crystal form of precipitated solid: Crystal form O
[1]; 0 day
  Stability study (purity): 99.22 Area %
[1]; 40° C./75% RH, open, 1 week
  Stability study (purity): 99.31 Area %
[1]; 40° C./75% RH, open, 2 weeks
  Stability study (purity): 99.36 Area %
[1]; 60° C., sealed, 1 week
  Stability study (purity): 99.34 Area %
[1]; 60° C., sealed, 2 weeks
  Stability study (purity): 99.36 Area %
[2]
  Crystal form after moisture absorption (XRPD before and after the DVS test): doesn't change
[2]; at a humidity of 80% RH
  Weight gain by moisture absorption (DVS): 1.80%
[2]; from 0% RH to 95% RH, 25° C.
  Weight gain by moisture absorption (DVS): 6.85%
[3]; 40° C./75% RH, open
  Stability study: crystal form: Unchange
[3]; 60° C., sealed
  Stability study: crystal form: Unchange
[3]
  Appearance in solid state stability test: didn't change
[5]; Acetone
  Crystal form of precipitated solid: Crystal form O
[5]; Ethanol
  Crystal form of precipitated solid: Crystal form O
[5]; Isopropanol
  Crystal form of precipitated solid: Crystal form O
[5]; Methanol
  Crystal form of precipitated solid: Crystal form O
[5]; Tetrahydrofuran
  Crystal form of precipitated solid: Crystal form O
[6]; Acetone
  Crystal form after slurrying: Crystal form O
[6]; Ethanol
  Crystal form after slurrying: Crystal form O
[6]; Ethyl acetate
  Crystal form after slurrying: Crystal form O
[6]; Isopropanol
  Crystal form after slurrying: Crystal form O
[6]; Methanol
  Crystal form after slurrying: Crystal form O
[6]; Methyl tert-butyl ether
  Crystal form after slurrying: Crystal form O
[6]; N-heptane
  Crystal form after slurrying: Crystal form O
[6]; Tetrahydrofuran
  Crystal form after slurrying: Crystal form O
[6]; Toluene
  Crystal form after slurrying: Crystal form O
[7]; Anti-solvent Ethyl acetate
  Product crystal form: Crystal form O
[7]; Anti-solvent Methyl tert-butyl ether
  Product crystal form: Crystal form O
[7]; Anti-solvent N-heptane
  Product crystal form: Crystal form O
[7]; Anti-solvent Toluene
  Product crystal form: Crystal form O
[8]; Ethanol
  Crystal form of precipitated solid: Crystal form O
[8]; Isopropanol
  Crystal form of precipitated solid: Crystal form O

## Br.Cc1nc2cnc3ccoc3c2n1C1CCC(CC#N)OC1 (stereo not shown)
[2]
  Crystal form after moisture absorption (XRPD before and after the DVS test): changed
[2]; from 0% RH to 95% RH, 25° C.
  Weight gain by moisture absorption (DVS): 11.84%

## Cc1nc2cnc3ccoc3c2n1C1CCC(CC#N)OC1.O=S(=O)(O)c1ccccc1 (stereo not shown)
[2]
  Crystal form after moisture absorption (XRPD before and after the DVS test): doesn't change
[2]; at 70% RH
  Weight gain by moisture absorption (DVS): 0.97%
[2]; at a humidity of 85% RH
  Weight gain by moisture absorption (DVS): 0.54%
[2]; from 0% RH to 95% RH, 25° C.
  Weight gain by moisture absorption (DVS): 4.6%

## Cc1nc2cnc3ccoc3c2n1[C@H]1CC[C@H](CC#N)OC1 [compound of formula I, 2-[(2R,5S)-5-[2-methylfuro[3,2-b]imidazo[4,5-d]pyridin-1-yl]tetrahydropyran-2-yl] acetonitrile]
[9]
  Inhibition of thrombopoietin-induced STAT3 phosphorylation: does not show selective inhibition
TYK2
  IC50: < 10 nM
[10]
  Inhibition of IL-6-induced STAT3 phosphorylation: selective inhibition
JAK1
  JAK1 inhibition: potent and selective JAK1 inhibitor
